Laboratory results from patent publication US5703097A, “5-pyrrolyl-2-pyridylmethylsulfinyl benzimidazole derivatives” (priority 1994, dated 1997).
Structures can show the parent of a compound that is named as a salt.

Assays:
[1] = target: T1, H^+ /K^+ -ATPase (Oryctolagus cuniculus, UniProt P27112); assay: Inhibition of enzyme activity: in vitro inhibition of H+/K+-ATPase (TEST 1); assay type: biochemical, rabbit; settings: 5 min pre-incubation at 37° C., 4 mM ATP
T1 construct: The gastric mucous membrane was removed from a rabbit; from tissue; host or cells: rabbit gastric mucosa, microsomal fraction (77,000 g)
Description: In this test, omeprazole [5-methoxy-2-[[(4-methoxy-3,5-dimethyl-2-pyridinyl)methyl]sulfinyl]-1H-benzimidazole] was used as the control compound.
The gastric mucous membrane was removed from a rabbit and then centrifuged with 77,000 g using a ultra-centrifuge to separate the microsomal fraction which was used as the source of H^+ /K^+ -ATPase enzyme for this test. 60 μg of H^+ /K^+ -ATPase was pre-incubated with the sample (the compound according to the present invention) for 5 minutes at 37° C. and then 4 mM ATP as the substrate and 4 mM Mg^++, 20 mM K^+ as the cofactor were added thereto. Then, the amount of inorganic phosphorus thus produced was determined using a spectrophotometer at 660 nm and converted into the amount of protein. […]

[2] = system: gastric juice secretion; assay: Effect on inhibition of gastric juice secretion, in vivo, Shay method (TEST 2); set-up: species or system rat (SD male rats); settings: for Volume of gastric juice / Inhibition rate, gastric juice secretion: into duodenum, 5 hours; for Volume of gastric juice: pylorus-ligated rats; for Inhibition rate, gastric juice secretion: vs normal group
Description: (§1) The specific test methods are as follows.
(§2) SD male rats (200±20 g) were fasted for 24 hours, except for water, and then anesthesized with ether. The abdomen of rats was incised and then the pylorus was ligated. The test compounds were suspended or dissolved in 5% CMC (carboxymethylcellulose) and injected into duodenum. After the abdomen was sutured, the rats were allowed to stand for 5 hours and then sacrificed with ether. The stomach was removed from rats and the gastric juices were collected. The gastric juice was centrifuged with 10,000 xg for 10 minutes at 4° C. to remove the precipitate. The amount of gastric juice and acidity were determined using pH 7.0 end point assay with 0.02N NaOH and then the total acid output was calculated.

[3] = system: gastric acidity; assay: Effect on inhibition of acidity (total acid output), in vivo, Shay method (TEST 2); set-up: species or system rat (SD male rats); settings: for Volume (acidity, total acid output) / Inhibition rate, acidity: into duodenum, 5 hours; for Volume (acidity, total acid output): pylorus-ligated rats; for Inhibition rate, acidity: vs normal group
Description: as §1, §2

[4] = in words, even at a lower dose than that of the known anti-ulcer agent

T1 sequence (P27112 2-1035 limits assumed): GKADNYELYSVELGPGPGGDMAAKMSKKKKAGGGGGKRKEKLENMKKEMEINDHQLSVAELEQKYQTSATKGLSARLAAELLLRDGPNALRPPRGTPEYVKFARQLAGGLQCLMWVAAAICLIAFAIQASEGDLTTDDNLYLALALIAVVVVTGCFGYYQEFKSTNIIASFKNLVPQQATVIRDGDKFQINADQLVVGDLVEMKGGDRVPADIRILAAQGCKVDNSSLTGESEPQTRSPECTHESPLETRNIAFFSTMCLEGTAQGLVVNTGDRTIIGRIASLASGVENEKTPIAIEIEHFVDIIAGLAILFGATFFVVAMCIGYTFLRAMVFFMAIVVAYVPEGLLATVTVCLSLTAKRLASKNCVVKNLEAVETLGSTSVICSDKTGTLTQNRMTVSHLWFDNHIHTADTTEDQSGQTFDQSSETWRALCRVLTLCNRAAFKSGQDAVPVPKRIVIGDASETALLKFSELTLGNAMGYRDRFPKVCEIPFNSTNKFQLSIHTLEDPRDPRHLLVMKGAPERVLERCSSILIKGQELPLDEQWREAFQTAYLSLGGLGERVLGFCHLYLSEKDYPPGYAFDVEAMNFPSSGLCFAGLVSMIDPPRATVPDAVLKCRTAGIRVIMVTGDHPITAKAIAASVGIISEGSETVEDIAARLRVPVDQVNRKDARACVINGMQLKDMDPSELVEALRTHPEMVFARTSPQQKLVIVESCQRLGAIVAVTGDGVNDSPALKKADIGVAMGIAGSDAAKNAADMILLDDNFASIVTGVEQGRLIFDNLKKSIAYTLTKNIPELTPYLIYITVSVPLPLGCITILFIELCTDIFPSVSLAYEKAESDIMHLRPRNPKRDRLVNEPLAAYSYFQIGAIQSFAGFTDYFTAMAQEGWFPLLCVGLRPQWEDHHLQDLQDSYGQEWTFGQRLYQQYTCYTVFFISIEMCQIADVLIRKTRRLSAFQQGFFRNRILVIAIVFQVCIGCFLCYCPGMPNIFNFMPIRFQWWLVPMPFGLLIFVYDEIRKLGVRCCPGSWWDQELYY
T1 sequence (P18597 whole entry partner): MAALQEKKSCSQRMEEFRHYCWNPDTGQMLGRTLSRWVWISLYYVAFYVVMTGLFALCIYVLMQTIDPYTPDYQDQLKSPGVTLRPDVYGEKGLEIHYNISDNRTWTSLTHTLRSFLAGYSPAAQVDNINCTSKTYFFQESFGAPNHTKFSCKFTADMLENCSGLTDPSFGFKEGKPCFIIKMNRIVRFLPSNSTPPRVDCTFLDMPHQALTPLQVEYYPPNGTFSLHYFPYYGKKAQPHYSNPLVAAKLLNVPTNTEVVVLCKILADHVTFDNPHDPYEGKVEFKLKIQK

SMILES: COc1ccnc(CSc2nc3cc(-n4cccc4)ccc3[nH]2)c1C [Compound 1, 2-[[(4-methoxy-3-methyl)-2-pyridinyl]methylthio]-5-(1H-pyrrol-1-yl)-1H-benzimidazole]
- IC50 [1]: > 400 µM

SMILES: Cc1c(OCC(F)(F)F)ccnc1C[S+]([O-])c1nc2cc(-n3cccc3)ccc2[nH]1 (stereo not shown) [Compound 13, 2-[[(4-(2,2,2-trifluoroethoxy)-3-methyl)-2-pyridinyl]methylsulfinyl]-5-(1H-pyrrol-1-yl)-1H-benzimidazole]
- IC50 [1]: 100 µM

SMILES: COc1cc(C[S+]([O-])c2nc3cc(-n4cccc4)ccc3[nH]2)ncc1C (stereo not shown) [Compound 18]
- IC50 [1]: 38 µM
- Volume of gastric juice ([2]; 3 mg/kg): 2.24 ± 0.12 ml/100 g BW
- Inhibition rate, gastric juice secretion ([2]; 3 mg/kg): 27.35%
- Volume of gastric juice ([2]; 10 mg/kg): 2.14 ± 0.30 ml/100 g BW
- Inhibition rate, gastric juice secretion ([2]; 10 mg/kg): 30.90%
- Volume of gastric juice ([2]; 30 mg/kg): 1.53 ± 0.19 ml/100 g BW
- Inhibition rate, gastric juice secretion ([2]; 30 mg/kg): 50.42%
- Volume (acidity, total acid output) ([3]; 3 mg/kg): 28.37 ± 3.44 μ Eq/hr
- Inhibition rate, acidity ([3]; 3 mg/kg): 53.39%
- Volume (acidity, total acid output) ([3]; 10 mg/kg): 23.40 ± 3.94 μ Eq/hr
- Inhibition rate, acidity ([3]; 10 mg/kg): 61.55%
- Volume (acidity, total acid output) ([3]; 30 mg/kg): 15.72 ± 3.60 μ Eq/hr
- Inhibition rate, acidity ([3]; 30 mg/kg): 74.18%

SMILES: CCOc1ccnc(C[S+]([O-])c2nc3cc(-n4cccc4)ccc3[nH]2)c1C (stereo not shown) [Compound 9]
- IC50 [1]: 64 µM
- Volume of gastric juice ([2]; 10 mg/kg): 1.50 ± 0.15 ml/100 g BW
- Inhibition rate, gastric juice secretion ([2]; 10 mg/kg): 36.04%
- Volume of gastric juice ([2]; 30 mg/kg): 1.14 ± 0.12 ml/100 g BW
- Inhibition rate, gastric juice secretion ([2]; 30 mg/kg): 51.46%
- effect for inhibition of gastric acid secretion ([2]; in words): good effects
- Volume (acidity, total acid output) ([3]; 10 mg/kg): 11.84 ± 3.10 μ Eq/hr
- Inhibition rate, acidity ([3]; 10 mg/kg): 56.66%
- Volume (acidity, total acid output) ([3]; 30 mg/kg): 3.80 ± 1.54 μ Eq/hr
- Inhibition rate, acidity ([3]; 30 mg/kg): 86.09%
- effect for lowering acidity ([3]; in words): good effects

SMILES: COc1ccnc(CS(=O)(=O)c2nc3cc(-n4cccc4)ccc3[nH]2)c1C [Compound 3]
- IC50 [1]: > 400 µM

SMILES: Cc1c(OCC(F)(F)C(F)(F)F)ccnc1C[S+]([O-])c1nc2cc(-n3cccc3)ccc2[nH]1 (stereo not shown) [Compound 14, 2-[[(4-(2,2,3,3,3-pentafluoropropoxy)-3-methyl)-2-pyridinyl]methylsulfinyl]-5-(1H-pyrrol-1-yl)-1H-benzimidazole]
- IC50 [1]: > 400 µM

SMILES: Cc1cnc(C[S+]([O-])c2nc3cc(-n4cccc4)ccc3[nH]2)c(C)c1 (stereo not shown) [Compound 12]
- IC50 [1]: 85 µM

SMILES: CCc1cnc(C[S+]([O-])c2nc3cc(-n4cccc4)ccc3[nH]2)cc1OC (stereo not shown) [Compound 10]
- IC50 [1]: 8.8 µM

SMILES: COc1ccc2[nH]c([S+]([O-])Cc3ncc(C)c(OC)c3C)nc2c1 (stereo not shown) [Omeprazole, 5-methoxy-2-[[(4-methoxy-3,5-dimethyl-2-pyridinyl)methyl]sulfinyl]-1H-benzimidazole, reference compound]
- IC50 [1]: ~160 µM
- Volume of gastric juice ([2]; 10 mg/kg): 1.68 ± 0.30 ml/100 g BW
- Inhibition rate, gastric juice secretion ([2]; 10 mg/kg): 54.49%
- Volume (acidity, total acid output) ([3]; 10 mg/kg): 12.46 ± 1.85 μ Eq/hr
- Inhibition rate, acidity ([3]; 10 mg/kg): 84.00%

SMILES: Cc1ccnc(C[S+]([O-])c2nc3cc(-n4cccc4)ccc3[nH]2)c1 (stereo not shown) [Compound 7]
- IC50 [1]: > 400 µM

SMILES: COc1ccnc(C[S+]([O-])c2nc3cc(-n4cccc4)ccc3[nH]2)c1C (stereo not shown) [Compound 16, 2-[[(4-methoxy-3-methyl)-2-pyridinyl]methylsulfinyl]-5-(1H-pyrrol-1-yl)-1H-benzimidazole sodium salt]
- IC50 [1]: 28 µM
- Volume of gastric juice ([2]; 3 mg/kg, sodium salt): 2.05 ± 0.16 ml/100 g BW
- Inhibition rate, gastric juice secretion ([2]; 3 mg/kg, sodium salt): 41.29%
- Volume of gastric juice ([2]; 10 mg/kg, sodium salt): 1.35 ± 0.12 ml/100 g BW
- Inhibition rate, gastric juice secretion ([2]; 10 mg/kg, sodium salt): 61.51%
- Volume of gastric juice ([2]; 30 mg/kg, sodium salt): 1.17 ± 0.20 ml/100 g BW
- Inhibition rate, gastric juice secretion ([2]; 30 mg/kg, sodium salt): 66.61%
- effect for inhibition of gastric acid secretion ([2]; in words): good effects
- Volume (acidity, total acid output) ([3]; 3 mg/kg, sodium salt): 22.59 ± 2.88 μ Eq/hr
- Inhibition rate, acidity ([3]; 3 mg/kg, sodium salt): 70.05%
- Volume (acidity, total acid output) ([3]; 10 mg/kg, sodium salt): 10.99 ± 3.05 μ Eq/hr
- Inhibition rate, acidity ([3]; 10 mg/kg, sodium salt): 85.43%
- Volume (acidity, total acid output) ([3]; 30 mg/kg, sodium salt): 1.98 ± 1.21 μ Eq/hr
- Inhibition rate, acidity ([3]; 30 mg/kg, sodium salt): 97.37%
- effect for lowering acidity ([3]; in words): good effects

SMILES: COc1ccnc(C[S+]([O-])c2nc3cc(-n4c(C)ccc4C)ccc3[nH]2)c1C (stereo not shown) [Compound 15, 2-[[(4-methoxy-3-methyl)-2-pyridinyl]methylsulfinyl]-5-(1H-2,5-dimethylpyrrol-1-yl)-1H-benzimidazole]
- IC50 [1]: 33 µM

SMILES: COc1cc(C[S+]([O-])c2nc3cc(-n4cccc4)ccc3[nH]2)ncc1C (stereo not shown) [Compound 5]
- IC50 [1]: 32 µM
- Volume of gastric juice ([2]; 10 mg/kg): 1.31 ± 0.23 ml/100 g BW
- Inhibition rate, gastric juice secretion ([2]; 10 mg/kg): 52.81%
- Volume of gastric juice ([2]; 30 mg/kg): 0.99 ± 0.16 ml/100 g BW
- Inhibition rate, gastric juice secretion ([2]; 30 mg/kg): 64.30%
- effect for inhibition of gastric acid secretion ([2]; in words): good effects
- inhibition of gastric juice secretion [2, 4]: strong inhibition of gastric juice secretion
- Volume (acidity, total acid output) ([3]; 10 mg/kg): 16.89 ± 4.06 μ Eq/hr
- Inhibition rate, acidity ([3]; 10 mg/kg): 70.60%
- Volume (acidity, total acid output) ([3]; 30 mg/kg): 5.59 ± 2.22 μ Eq/hr
- Inhibition rate, acidity ([3]; 30 mg/kg): 90.27%
- effect for lowering acidity ([3]; in words): good effects
- acidity lowering effect [3, 4]: high acidity lowering effect

SMILES: COc1ccnc(C[S+]([O-])c2nc3cc(-n4cccc4)ccc3[nH]2)c1C (stereo not shown) [Compound 17]
- IC50 [1]: 13 µM
- Volume of gastric juice ([2]; 3 mg/kg): 1.31 ± 0.18 ml/100 g BW
- Inhibition rate, gastric juice secretion ([2]; 3 mg/kg): 54.79%
- Volume of gastric juice ([2]; 10 mg/kg): 1.23 ± 0.20 ml/100 g BW
- Inhibition rate, gastric juice secretion ([2]; 10 mg/kg): 57.55%
- Volume of gastric juice ([2]; 30 mg/kg): 1.15 ± 0.15 ml/100 g BW
- Inhibition rate, gastric juice secretion ([2]; 30 mg/kg): 60.38%
- effect for inhibition of gastric acid secretion ([2]; in words): good effects
- Volume (acidity, total acid output) ([3]; 3 mg/kg): 14.94 ± 3.02 μ Eq/hr
- Inhibition rate, acidity ([3]; 3 mg/kg): 75.02%
- Volume (acidity, total acid output) ([3]; 10 mg/kg): 8.50 ± 1.30 μ Eq/hr
- Inhibition rate, acidity ([3]; 10 mg/kg): 85.79%
- Volume (acidity, total acid output) ([3]; 30 mg/kg): 6.06 ± 3.05 μ Eq/hr
- Inhibition rate, acidity ([3]; 30 mg/kg): 89.87%
- effect for lowering acidity ([3]; in words): good effects

SMILES: Cc1cnc(C[S+]([O-])c2nc3cc(-n4cccc4)ccc3[nH]2)cc1C (stereo not shown) [Compound 6]
- IC50 [1]: ~400 µM

SMILES: COc1c(C)cnc(C[S+]([O-])c2nc3cc(-n4cccc4)ccc3[nH]2)c1C (stereo not shown) [Compound 4]
- IC50 [1]: 210 µM

SMILES: COc1ccnc(C[S+]([O-])c2nc3cc(-n4cccc4)ccc3[nH]2)c1 (stereo not shown) [Compound 8]
- IC50 [1]: 91 µM
- Volume of gastric juice ([2]; 10 mg/kg): 1.42 ± 0.24 ml/100 g BW
- Inhibition rate, gastric juice secretion ([2]; 10 mg/kg): 28.85%
- Volume of gastric juice ([2]; 30 mg/kg): 0.87 ± 0.15 ml/100 g BW
- Inhibition rate, gastric juice secretion ([2]; 30 mg/kg): 56.09%
- effect for inhibition of gastric acid secretion ([2]; in words): good effects
- Volume (acidity, total acid output) ([3]; 10 mg/kg): 14.29 ± 2.81 μ Eq/hr
- Inhibition rate, acidity ([3]; 10 mg/kg): 60.81%
- Volume (acidity, total acid output) ([3]; 30 mg/kg): 2.92 ± 1.42 μ Eq/hr
- Inhibition rate, acidity ([3]; 30 mg/kg): 91.99%
- effect for lowering acidity ([3]; in words): good effects

SMILES: [O-][S+](Cc1ccccn1)c1nc2cc(-n3cccc3)ccc2[nH]1 (stereo not shown) [Compound 11]
- IC50 [1]: > 400 µM
